Earlier results, collected in US20090023644A1 (priority 2004, published 2009).
Read-outs that look alike come from different tables or passages of the source.

Legend:
[1] = 8 ng/kg/min IV infusion for 8 hours
[2] = 600 ng/min
[3] = IV infusion 10 or 20 minutes at 0.8, 3.2 or 16 ng/kg/min

Calcitonin gene-related peptide [CGRP]
cardiac output [3]: increase
systemic vascular resistance [3]: decreased
tachycardia [3]: no tachycardia observed
type of vasodilator behaviour (at lower doses): pure arteriolar vasodilator
type of vasodilator behaviour (at the higher dose): mixed vasodilator
cardiac output [1]: increased
pulmonary and systemic arterial pressure [1]: decreased
time to loss of hemodynamic effects after stopping CGRP infusion [1]: ≤ 30 min
vascular resistance [1]: decreased
glomerular filtration ([1]; during treatment): increased
renal blood flow ([1]; during treatment): increased
discontinuation of infusion due to nausea, diarrhea, and/or severe facial flushing ([2]; 48-hour continuous IV infusion): discontinued after 28 hours in 3 out of the 6 patients
hemodynamic functions such as left ventricular function ([2]; pulsed therapy): improve
unfavorable side effects ([2]; pulsed therapy): tachycardia and neurohumoral response were also observed
tolerability ([2]; pulsed therapy (2-8 hour infusions for two consecutive days)): well tolerated
